This is an account of results in patent US20100010060A1, “Isoindolin-1-One-, Isoindolin-3-One- and Isoindolin-1,3-Dione-Derivatives and Use Thereof” (Bayer Healthcare AG, priority 2006, published 2010).

This test has as its target human factor Xa (FXa) (Homo sapiens, UniProt P00742). Description: Determination of the factor Xa inhibition (chromogenic substrate). Format: biochemical. The conditions noted are these: human FXa 0.5 nmol/l, 150 μmol/l Pefachrome FXa, 25° C., pH 8.3, extinction at 405 nm. The procedure: a.1) Determination of the Factor Xa Inhibition:
The enzymatic activity of human factor Xa (FXa) is measured using the conversion of a chromogenic substrate specific for FXa. Factor Xa cleaves p-nitroaniline from the chromogenic substrate. The determinations are carried out in microtitre plates as follows:
The test substances, in various concentrations, are dissolved in DMSO and incubated for 10 minutes at 25° C. with human FXa (0.5 nmol/l dissolved in 50 mmol/l of Tris buffer [C,C,C-tris(hydroxymethyl)aminomethane], 150 mmol/l of NaCl, 0.1% BSA [bovine serum albumin], pH=8.3). Pure DMSO is used as control. The chromogenic substrate (150 μmol/l of Pefachrome® FXa from Pentapharm) is then added. After an incubation time of 20 minutes at 25° C., the extinction at 405 nm is determined.

Structures are written as SMILES.

Sequence of human factor Xa (FXa) (P00742 235-488 limits assumed): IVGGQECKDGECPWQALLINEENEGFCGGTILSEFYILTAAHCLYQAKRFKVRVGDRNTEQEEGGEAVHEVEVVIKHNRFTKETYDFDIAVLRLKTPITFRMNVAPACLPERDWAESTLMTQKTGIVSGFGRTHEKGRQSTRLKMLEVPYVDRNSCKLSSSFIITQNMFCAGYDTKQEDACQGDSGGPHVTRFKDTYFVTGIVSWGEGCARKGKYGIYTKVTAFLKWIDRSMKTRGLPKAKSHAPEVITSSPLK
Sequence of human factor Xa (FXa) (P00742 41-179 partner limits assumed): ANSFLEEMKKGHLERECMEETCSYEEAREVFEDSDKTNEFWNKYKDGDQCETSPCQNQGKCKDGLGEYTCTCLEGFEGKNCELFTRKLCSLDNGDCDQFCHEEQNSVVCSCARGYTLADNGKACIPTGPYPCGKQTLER

Turning to `N=C1OCCN1c1cccc(CN2Cc3cccc(NC(=O)c4ccc(Cl)s4)c3C2=O)c1` [Example 5, 5-Chloro-N-{2-[3-(2-imino-1,3-oxazolidin-3-yl)benzyl]-3-oxo-2,3-dihydro-1H-isoindol-4-yl}-thiophene-2-carboxamide methanesulphonate], the IC50 was found to be 1.1 nM.

As usually defined, the IC50 is the concentration that inhibits the measured activity by half. High values mean weaker potency, low ones greater potency.
